Reference: patent US20230056593A1, “ARGININE ASPARTATE-CONTAINING COMPOSITION FOR SUPPRESSING OLD PERSON SMELL” (HUMEDIX CO., LTD., priority 2020, published 2023)

Key:
Procollagen = experiment: Collagen synthesis ability in human skin fibroblasts (Type I Procollagen C-Peptide EIA kit); assay type: cell-based
Method: Human skin fibroblasts were cultured at a concentration of 1×10^4/well. The cells were treated with each sample, and the amount of synthesized collagen was measured to evaluate the collagen synthesis ability. The cells were treated with adenosine at a concentration of 50 ppm as a positive control and arginine aspartate at a concentration of 10, 20 and 40 ppm. Collagen quantification was performed using a Type I Procollagen C-Peptide EIA kit (Takara, Japan). A group in which the cells were not treated with sample was used as a control group (CON).

MMP-1 = MMP-1 expression level in human skin fibroblasts (PCR); assay type: cell-based
Method: Human skin fibroblasts were cultured at a concentration of 1×10^4/well. The cells were treated with arginine aspartate for each concentration, and the MMP-1 expression level was measured using a PCR device to evaluate the ability of arginine aspartate to inhibit MMP-1. A group in which the cells were not treated with the sample was used as a control group (CON), and a group in which the cells were treated with 50 ppm of adenosine was used as a positive control group.

mushroom tyrosinase = experiment: Whitening effect: mushroom tyrosinase activity (absorbance at 490 nm); assay type: biochemical; settings: for Tyrosinase activity (% of control): 37° C. for 10 minutes, pH 6.8
Method: After adding 200 μL of 0.1M phosphate buffer (pH 6.8) to the Eppen tube, 20 μL of each sample solution diluted at each concentration was added. Then, 20 μL of mushroom tyrosinase (2,000 units/μL) and 200 μL of 0.3% tyrosine were added in order, and then reacted at 37° C. for 10 minutes. After 200 μL of this solution was transferred to a 96-well plate, absorbance was measured at 490 nm using an ELISA reader. 100 ppm arbutin was used as a positive control.

TNF-α = experiment: Anti-inflammatory effect: TNF-α expression in UVB-stimulated HaCaT cells (RT-PCR); assay type: cell-based; settings: UVB stimulation
Method: HaCaT cells were seeded in a 12-well plate by 1×10^5 cells/well, and after 24 hours, they were replaced with a basal medium and starvated for 6 hours. After that, the medium was replaced with the basal medium containing the sample and the cells were incubated for 24 hours. After removal of the medium, UVB stimulation was applied, and the basal medium was added and the cells were cultured for 24 hours. The medium was completely removed and the cells were washed twice with PBS. The cells were disrupted using TRIsure to recover RNA, and then RT-PCR was performed to amplify TNF-α. Electrophoresis was performed on an agarose gel and the expression rate was measured using the Gel Documentation system. 200 μM dexamethasone was used as a positive control.

[1] = Removal of 2-nonenal by arginine aspartate (HPLC over time); settings: 0.05 wt % 2-nonenal treated with 2.5 wt % arginine aspartate, room temperature, after 20 hours
Method: The ability of the arginine aspartate of Formula (I) according to the present invention to remove 2-nonenal was evaluated.
2-Nonenal was dissolved at a concentration of 0.1 wt % (1000 ppm) in 50 wt % ethanol aqueous solution containing 0.5 wt % Tween 80. Arginine aspartate was dissolved at a concentration of 5 wt % (50000 ppm) in a 50 wt % ethanol aqueous solution containing 0.5 wt % Tween 80.
The two solutions were mixed in a 1:1 ratio by weight to make a mixed solution. The mixed solution was left at room temperature and the change in the amount of 2-nonenal was analyzed by HPLC over time. That is, the change in the amount of 2-nonenal over time was analyzed by treating 0.05 wt % 2-nonenal with arginine aspartate at a concentration of 2.5 wt %.
Further, the 2-nonenal solution prepared above was diluted two-fold with a 50 wt % ethanol aqueous solution containing 0.5 wt % Tween 80 and the diluted solution was left at room temperature to analyze the change in the amount of 2-nonenal over time by HPLC. That is, the change in the amount of 2-nonenal over time was analyzed in a condition of 0.05 wt % of 2-nonenal untreated with arginine aspartate.

Nc1ncnc2c1ncn2[C@@H]1O[C@H](CO)[C@@H](O)[C@H]1O [Adenosine, adenosine, reference compound]
Type I procollagen C-peptide level (% of control) (Procollagen; 50 ppm): 142.2 % of control
MMP-1 gene expression level (% of control) (MMP-1; 50 ppm): 73.9 % of control

OC[C@H]1O[C@@H](Oc2ccc(O)cc2)[C@H](O)[C@@H](O)[C@@H]1O [Arbutin, arbutin, reference compound]
Tyrosinase activity (% of control) (mushroom tyrosinase; 10 ppm): 93.6 % of control
Tyrosinase activity (% of control) (mushroom tyrosinase; 100 ppm): 76.7 % of control

C[C@@H]1C[C@H]2[C@@H]3CCC4=CC(=O)C=C[C@]4(C)[C@@]3(F)[C@@H](O)C[C@]2(C)[C@@]1(O)C(=O)CO [Dexamethasone, dexamethasone, reference compound]
TNF-α gene expression level (% of control) (TNF-α; 50 ppm (table)): 66.9 % of control

arginine aspartate
collagen synthesis compared to the control group (CON) (Procollagen; 10, 20 and 40 ppm): increase in collagen synthesis
Type I procollagen C-peptide level (% of control) (Procollagen; 10 ppm): 123.6 % of control
Type I procollagen C-peptide level (% of control) (Procollagen; 20 ppm): 133.0 % of control
Type I procollagen C-peptide level (% of control) (Procollagen; 40 ppm): 136.8 % of control
Tyrosinase activity (% of control) (mushroom tyrosinase; 10 ppm): 72.5 % of control
inhibition in tyrosinase activity (mushroom tyrosinase; 100 ppm): 28.3%
Tyrosinase activity (% of control) (mushroom tyrosinase; 100 ppm): 71.7 % of control
MMP-1 gene expression level (% of control) (MMP-1; 10 ppm): 86.7 % of control
MMP-1 gene expression level (% of control) (MMP-1; 20 ppm): 82.2 % of control
MMP-1 gene expression level (% of control) (MMP-1; 40 ppm): 76.6 % of control
inhibitory effect on MMP-1 (MMP-1; 40 ppm): 23.4%
amount of 2-nonenal decreased [1]: 74%
amount of 2-nonenal left compared to the initial 100% by weight [1]: 26 % by weight
TNF-α gene expression level (% of control) (TNF-α; 10 ppm): 76.0 % of control
TNF-α gene expression level (% of control) (TNF-α; 20 ppm): 72.9 % of control
TNF-α gene expression level (% of control) (TNF-α; 40 ppm): 72.6 % of control
decrease in TNF-α expression level (TNF-α; 40 ppm): 37.4%
